# Experimental data from patent US20130131018A1, “SUBSTITUTED ISOQUINOLINES AND THEIR USE AS TUBULIN POLYMERIZATION INHIBITORS” (Exonhit S.A., priority 2010, published 2013).
# Where a name gives a salt, the structure may show the parent alone. Read-outs that look alike come from different tables or passages of the source.
# Tests used:
# [1] = phase 1 studies, cited from earlier work
# blood flow = details: animal studies, cited from earlier work
# [2] = test system: Endothelial cells (HUVEC); experiment: Neovessels formation inhibition (capillary tube formation on Matrigel); format: cell-based; details: Homo sapiens
# Description: The capability of compounds to inhibit the formation of capillaries was evaluated in vitro. Twenty thousand Endothelial cells (HUVEC) were placed on a Matrigel matrix and allowed to form capillary tubes in the presence or absence of the compounds overnight. The cells were stained with calcein AM, and the effect of the compounds on capillary tube formation was assessed using an inverted fluorescent microscope (Nikon). The reference compound used in this assay AVE-8063 is 3-amino-deoxycombretastatin A-4.
# [3] = target: T1, colchicine site on tubulin (biotinylated porcine tubulin) (Sus scrofa, UniProt P02550+P02554); experiment: Tubulin displacement assay (3H-colchicine radioligand binding, SPA)
# T1 construct: biotin (chemical label)
# Description: The assay was developped following the method published by Tahir et al. (2001) and others using biotinylated porcine tubulin captured to streptavidin coated yttrium silicate scintillation proximity assay (YSi SPA) beads in a PIPES/EGTA/MgCl2/GTP buffer. […] IC50s were determined using GraphPad Prism Version 5.01 and the sigmoidal dose response with variable slope curve fit.
# purified tubulin = target: T2, purified tubulin (Sus scrofa, UniProt P02550+P02554); experiment: Tubulin polymerisation assay (CytoDYNAMIX Screen kit, absorbance at 340 nm); format: biochemical; details: 5 μM compound, 4 mg/ml tubulin; read-out: % Inhibition of tubulin polymerization at 5 μM
# T2 construct: purchased Cytoskeleton #BK006P
# Description: The polymerization of purified tubulin was monitored spectrophotometrically by the change in absorbance at 340 nm using the CytoDYNAMIX Screen kit (#BK006P, Cytoskeleton) according to the instructions of the manufacturer. […] The absorbance was measured at 1 minute intervals for 60 minutes. The test compound was added to a 4 mg/ml tubulin solution containing 10% glycerol and 1 mM GTP in Buffer 1 (Buffer 1: 80 mM PIPES; 2 mM MgCl2; 0.5 mM EGTA, pH 6.9). Increased absorbance indicates increase in microtubule formation from tubulin heterodimers.
# K562 cell line = experiment: MTT assay: cytotoxicity against the K562 cell line; format: cell-based; details: Homo sapiens, K562 cells, 72 h, growth inhibition
# Summary of the method: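 Fifteen thousand K562 cells per well were exposed in triplicate to a compound dilution series for 72 h at 37 °C, 5% CO2. Viability was measured by MTT absorbance at 550 nm relative to untreated control, and IC50 was obtained by nonlinear regression.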
# HUVEC = experiment: Pre-established vessels disruption (capillary tubes on Matrigel); format: cell-based; details: Homo sapiens, HUVEC tubes formed 5 hours, then compounds overnight
# Description: To explore the effect of the compounds on pre-established vasculature, twenty thousand cells (HUVEC) were seeded and incubated over Matrigel for 5 hours to allow the capillary tubes to form. Then, compounds were added and incubated overnight. The disappearance of existing vasculature was monitored with fluorescent microscopy.
# [4] = read-out: Pre-established Vessels Disruption Number of Branch Junctions IC50
# [5] = read-out: Pre-established Vessels Disruption Total Tubule Length IC50
# T1 sequence (P02554 whole entry): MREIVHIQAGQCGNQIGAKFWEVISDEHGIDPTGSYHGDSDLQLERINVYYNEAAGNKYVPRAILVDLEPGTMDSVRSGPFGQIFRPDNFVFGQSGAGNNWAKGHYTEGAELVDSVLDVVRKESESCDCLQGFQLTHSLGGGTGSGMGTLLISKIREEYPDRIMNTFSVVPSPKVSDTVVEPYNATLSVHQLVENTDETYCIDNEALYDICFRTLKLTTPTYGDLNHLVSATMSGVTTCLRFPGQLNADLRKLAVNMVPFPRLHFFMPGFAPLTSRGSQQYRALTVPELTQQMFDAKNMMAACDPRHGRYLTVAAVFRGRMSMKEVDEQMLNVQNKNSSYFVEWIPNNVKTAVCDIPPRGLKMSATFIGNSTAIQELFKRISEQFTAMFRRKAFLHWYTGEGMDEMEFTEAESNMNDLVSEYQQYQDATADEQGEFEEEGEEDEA
# T1 sequence (P02550 whole entry): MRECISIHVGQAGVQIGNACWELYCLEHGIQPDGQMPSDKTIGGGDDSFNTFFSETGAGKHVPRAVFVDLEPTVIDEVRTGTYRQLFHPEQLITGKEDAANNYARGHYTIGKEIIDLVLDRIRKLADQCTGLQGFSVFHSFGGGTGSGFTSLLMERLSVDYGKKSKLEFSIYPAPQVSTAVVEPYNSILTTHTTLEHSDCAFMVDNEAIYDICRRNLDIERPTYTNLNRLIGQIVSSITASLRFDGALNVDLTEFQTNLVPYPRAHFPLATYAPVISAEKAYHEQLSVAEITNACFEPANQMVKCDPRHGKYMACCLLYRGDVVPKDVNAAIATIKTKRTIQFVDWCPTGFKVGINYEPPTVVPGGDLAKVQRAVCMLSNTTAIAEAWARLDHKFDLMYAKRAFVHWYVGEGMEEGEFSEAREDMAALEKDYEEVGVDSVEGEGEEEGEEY
# T2 sequence (P02554 whole entry): as the sequence (P02554 whole entry) above
# T2 sequence (P02550 whole entry): as the sequence (P02550 whole entry) above
"IC50 ([3]; competition with 50 nM [3H]-colchicine, 4 h at 37° C., read-out: IC50) [nM]",SMILES,dose-limiting toxicities ([1]; administered intravenously),Responses seen in [1],"blood flow decrease in heart, kidney, and intestine (blood flow; heart, kidney, intestine)","blood flow reduction in spleen, skeletal muscle, and brain (blood flow; spleen, skeletal muscle, brain)",blood flow reduction in the tumor (blood flow; tumor) [fold],"IC50 ([2]; HUVEC on Matrigel, compounds overnight, read-out: Neovessels Formation Inhibition Number of Branch Junctions IC50) [nM]","IC50 ([2]; HUVEC on Matrigel, compounds overnight, read-out: Neovessels Formation Inhibition Total Tubule Length IC50) [nM]",inhibition at 5 µM (purified tubulin) [%],IC50 (K562 cell line) [nM],IC50 (HUVEC; [4]) [nM],IC50 (HUVEC; [5]) [nM],"IC50 ([2]; HUVEC, read-out: Neovessels Formation Inhibition Number of Branch Junctions IC50 (nM)) [nM]","IC50 ([2]; HUVEC, read-out: Neovessels Formation Inhibition Total Tubule Length IC50 (nM)) [nM]",IC50 [3] [nM]
–,"COc1ccc(/C=C\c2cc(OC)c(OC)c(OC)c2)cc1OP(=O)([O-])[O-].[Na+].[Na+] [CA4P, CA-4 disodium phosphate]","dyspnea, neurological disturbances (syncope, motor neuropathy, ataxia), and cardiac and intestinal ischemia","thyroid cancer, sarcoma, and adrenocortical carcinoma",no significant decrease,less than 7 fold,100,–,–,–,–,–,–,–,–,–
41.4,"CCOc1ccc2c(C(=O)c3cc(OC)c(OC)c(OC)c3)cncc2c1O [Compound 97, (7-Ethoxy-8-hydroxyisoquinolin-4-yl)(3,4,5-trimethoxyphenyl)methanone hydrochloride]",–,–,–,–,–,4.04,5.52,4,4.86,6.65,8.82,–,–,–
–,"CCOc1ccc2c(C(=O)c3cc(OC)c(OC)c(OC)c3)cncc2c1OP(=O)(O)O [Compound 98, 7-ethoxy-4-(3,4,5-trimethoxybenzoyl)isoquinolin-8-yl disodium phosphate]",–,–,–,–,–,–,–,49,7.57,9.22,15.1,3.68,6.5,121
